# Reference: PubChem BioAssay (NCI)
# Values joined by “and” are separate entries in the source; they are usually repeats but may differ in a detail not shown here. Identical values can stand only once.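 The compound was tested at five concentrations on cells cultured in 96-well plates, with a 48-hour exposure period. At the GI50, growth is halved. Definition used: TGI = concentration required for complete inhibition of growth.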
# Assays:
# Test in all cases: NCI-60 cell line screen, 48 h
# SN12C renal = tested on: SN12C renal
# ACHN renal = tested on: ACHN renal
# MALME-3M melanoma = tested on: MALME-3M melanoma
# M14 melanoma = tested on: M14 melanoma
# K-562 leukemia = tested on: K-562 leukemia
# HCT-116 colon = tested on: HCT-116 colon
# SNB-19 CNS = tested on: SNB-19 CNS
# T-47D breast = tested on: T-47D breast
# UO-31 renal = tested on: UO-31 renal
# LOX IMVI melanoma = tested on: LOX IMVI melanoma
Structure (SMILES),GI50 (SN12C renal) [µM],TGI (SN12C renal),GI50 (ACHN renal),TGI (ACHN renal),GI50 (MALME-3M melanoma),TGI (MALME-3M melanoma),GI50 (M14 melanoma),TGI (M14 melanoma),GI50 (K-562 leukemia) [µM],TGI (K-562 leukemia) [µM],GI50 (HCT-116 colon),TGI (HCT-116 colon),GI50 (SNB-19 CNS) [µM],TGI (SNB-19 CNS),GI50 (T-47D breast),TGI (T-47D breast),GI50 (UO-31 renal),TGI (UO-31 renal),GI50 (LOX IMVI melanoma) [µM],TGI (LOX IMVI melanoma)
Clc1nc(Cl)nc(Nc2cccc3ccccc23)n1,> 100,> 100 µM,92.5 µM,> 100 µM,76.9 µM,> 100 µM,> 100 µM,> 100 µM,40.8,> 100,47.1 µM,> 100 µM,> 100,> 100 µM,98.5 µM,> 100 µM,26.5 µM,> 100 µM,33.5,> 100 µM
C=COC(=O)N[C@H]1CCc2cc(OC)c(OC)c(OC)c2-c2ccc(SC)c(=O)cc21,–,54.7 µM,–,64.9 µM,–,> 100 µM,–,14.7 µM,–,> 31.6,–,0.74 µM,–,24.8 µM,–,> 100 µM,–,74.9 µM,–,> 95.8 µM
C=C1C(=O)OC2CC(C)C(C(O)CC(C)O)=CCC12 (stereo not given),–,33.1 µM,–,8.95 µM,–,21.9 µM,–,35 µM,–,37.1,–,21.9 µM,–,> 100 µM,–,23.6 µM,–,30.7 µM,–,25.7 µM
Oc1ccc2ccccc2c1N=Nc1ccc(Br)cc1,–,> 100 µM,–,> 100 µM,–,> 100 µM,–,> 100 µM,–,> 100,–,> 100 µM,–,> 100 µM,–,> 100 µM,–,> 100 µM,–,> 100 µM
CCc1c(Cl)c(C)cc(O)c1Cl,–,30.9 µM,–,60.6 µM,–,> 100 µM,–,92.5 µM,–,> 100,–,> 100 µM,–,> 100 µM,–,> 100 µM,–,56.8 µM,–,51.7 µM
Cn1c(Nc2ccc(C(F)(F)F)cc2)nc2cc(Oc3ccnc(-c4ncc(C(F)(F)F)[nH]4)c3)ccc21,0.0855,16.6 µM,0.0354 µM,11.7 µM,0.0284 µM,0.154 µM,0.0338 µM,1.33 µM,1.76,25,0.0787 µM,7.06 µM,1.04,20.1 µM,2.3 µM,17.4 µM,0.239 µM,10.2 µM,0.0599,1.78 µM
CC(C(=O)O)c1cccc(Oc2ccccc2)c1 (stereo not given),> 100,> 100 µM,> 100 µM,> 100 µM,> 100 µM,> 100 µM,> 100 µM,> 100 µM,> 100,> 100,> 100 µM,> 100 µM,> 100,> 100 µM,> 100 µM,> 100 µM,> 100 µM,> 100 µM,> 100,> 100 µM
Oc1ccc(Nc2c3ccccc3nc3occ(Cl)c23)cc1,2.89,26.4 µM,15.2 µM,> 100 µM,2.13 µM,8.62 µM,3.79 µM,26.8 µM,2.24,53.1,5.85 µM,> 100 µM,4.62,> 100 µM,6.49 µM,> 100 µM,5.61 µM,24.4 µM,6.68,> 100 µM
O=[N+]([O-])c1ccc(CI)cc1,2,5.39 µM,1.96 µM,4.12 µM,2.15 µM,4.63 µM,3.38 µM,13.5 µM,0.404,2.95,0.9 µM,2.95 µM,3.03,14.4 µM,2.21 µM,5.17 µM,1.79 µM,3.59 µM,1.3,2.9 µM
Nc1c(C(=O)c2ccccc2)cnn1-c1ccc(F)cc1,> 25,> 25 µM,> 25 µM,> 25 µM,> 25 µM,> 25 µM,> 25 µM,> 25 µM,> 25,> 25,> 25 µM,> 25 µM,> 25,> 25 µM,> 25 µM,> 25 µM,> 25 µM,> 25 µM,> 25,> 25 µM
COC(=O)C1=CN(CC2=CC(=O)C(C)=CC2=O)C=C(C(=O)OC)C1c1cccc(OC)c1,22.9,> 60.5 µM,2.78 µM,7.99 µM,6.81 µM,16.1 µM,18.6 µM,35.6 µM,3.84,> 35.6,3.63 µM,11.1 µM,26,> 79.2 µM,8.26 µM,> 100 µM,2.65 µM,> 22.5 µM,17.6,42.7 µM
COc1ccc2c(c1)c[n+](C)c1c3cc(OC)c(OC)cc3ccc21,–,3.53 µM and 8.51 µM,2.42 µM and 9.86 µM,5.01 µM and 23.8 µM,3.71 µM and 12.4 µM,14.9 µM and 26 µM,1.41 µM and 4.48 µM,3.05 µM and 14.3 µM,–,43.1,1.08 µM and 2.48 µM,2.32 µM and 10 µM,–,8.1 µM and 13.8 µM,1.95 µM and 5.02 µM,4.93 µM and 26.4 µM,2.22 µM and 9.28 µM,5.13 µM and 22.5 µM,–,2.65 µM and 4.96 µM
COc1ccc(C2=C(c3ccc(OC)cc3)C(=O)N3CCCC3C2)cc1 (stereo not given),22.5,> 100 µM,15 µM,> 100 µM,52.6 µM,> 100 µM,28 µM,> 100 µM,–,> 100,2.96 µM,32.8 µM,45.6,> 100 µM,28 µM,> 100 µM,19.7 µM,> 100 µM,3.87,25.6 µM
C[C@H](Nc1cc(Cl)nc2c1cnn2[C@@H]1O[C@H](COP(=O)(O)CP(=O)(O)O)[C@@H](O)[C@H]1O)c1ccccc1F,> 100,> 100 µM,> 100 µM,> 100 µM,> 100 µM,> 100 µM,> 100 µM,> 100 µM,> 100,> 100,> 100 µM,> 100 µM,> 100,> 100 µM,> 100 µM,> 100 µM,> 100 µM,> 100 µM,> 100,> 100 µM
COc1ccccc1Nc1ncc(-c2ccccc2)o1,> 25,> 25 µM,> 25 µM,> 25 µM,> 25 µM,> 25 µM,> 25 µM,> 25 µM,> 25,> 25,> 25 µM,> 25 µM,> 25,> 25 µM,> 25 µM,> 25 µM,13.7 µM,> 25 µM,> 25,> 25 µM
CCN(Cc1ccc(F)cc1)c1ccc(CO)c(Br)c1,8.71,23.9 µM,10.2 µM,42 µM,16.9 µM,38 µM,16.5 µM,> 55.1 µM,0.487,18.4,0.046 µM,12.6 µM,15.7,44.2 µM,0.0546 µM,0.296 µM,2.89 µM,> 40.3 µM,11.6,26.1 µM
CCOC(=O)c1c(-c2ccc(OC)cc2)c(C#N)c2c(C#N)c(N)nn2c1N,4,49 µM,4.02 µM,48.5 µM,4.05 µM,82.7 µM,3.26 µM,25.9 µM,1.18,> 100,4.35 µM,19.4 µM,4.01,22.5 µM,2.93 µM,33.1 µM,3.49 µM,90 µM,4.81,> 100 µM
C[C@H]1CN[C@@H]2[C@@H](C)[C@H]3[C@@H](C[C@H]4[C@@H]5CC[C@H]6C[C@@H](N)CC[C@]6(C)[C@H]5CC[C@]34C)O[C@@]2(O)C1,–,4.25 µM,–,9.3 µM,–,3.23 µM,–,4.73 µM,–,41.9,–,3.14 µM,–,6.96 µM,–,4.51 µM,–,5.79 µM,–,4.08 µM
CN1CC[C@@H](c2c(O)cc(O)c3c(=O)cc(-c4ccc(C(F)(F)F)cc4Cl)oc23)[C@@H]1CO,16.4,44.6 µM,10.6 µM,38 µM,18.4 µM,36.9 µM,17.8 µM,33.8 µM,29.8,85.6,11.4 µM,24.2 µM,21,62.7 µM,14.5 µM,50.4 µM,11 µM,37.8 µM,11.9,25.6 µM
